{"source": "patent US12043670B2", "about": "“Anti-BCMA antibody-drug conjugates and methods of use” (Eisai R&D Management Co., Ltd., priority 2020, dated 2024)", "key": {"[1]": {"molecular_target": "T1, SF3b complex (Homo sapiens, UniProt O75533+Q7RTV0)", "T1 construct": "endogenous in cells; host or cells: nuclear extracts", "assay": "SF3B1 binding / scintillation proximity assay (SPA)", "conditions": "competition with 2.5 nM [3H]-pladienolide B probe", "description": "A scintillation proximity assay was performed to measure the binding affinity of compounds (“payloads”) to the SF3b complex. Batch immobilization of anti-SF3B1 antibody (MBL) to anti-mouse PVT SPA scintillation beads (PerkinElmer) was prepared. For every 2.5 mg of nuclear extracts, 5 μg of anti-SF3B1 antibody and 1.5 mg of beads were mixed in 150 μL PBS. The antibody-bead mixture was incubated for 30 min at room temperature (RT) and centrifuged at 18,000 g for 5 min. 150 μL PBS was used to resuspend every 1.5 mg antibody-bead mixture. The beads were suspended and added to the prepared nuclear extracts. The slurry was incubated for 2 hours at 4° C. with gentle mixing. The beads were then collected by centrifuging at 18,000 g for 5 min, and washed twice with PBS+0.1% Triton X-100. After a final centrifugation step, every 1.5 mg of beads was suspended with 150 μL of PBS. SF3b complexes were tested for [^3H]-labeled pladienolide B probe binding ([^3H]-PB), synthesized as previously described (Kotake et al. (2007) Nat Chem Biol. 3(9):570-5). 100 μL binding reactions were prepared with 50 μL bead slurry and by adding varying concentrations of PB or PB-OH, and after 30 min pre-incubation, 2.5 nM of [^3H]-PB was added. The mixture was incubated for 30 min, and luminescence signals were read using a MicroBeta2 Plate Counter (PerkinElmer). […]"}, "[2]": {"tested_on": "MM1.R cells", "assay": "CellTiter-Glo cell viability, MM1.R", "type": "cell-based, human", "conditions": "for GI50: Homo sapiens, MM.1R"}, "[3]": {"tested_on": "MOLP8 cells", "assay": "CellTiter-Glo cell viability, MOLP8", "type": "cell-based, human"}, "[4]": {"tested_on": "AMO-1 cells", "assay": "6-day CellTiter-Glo cell viability, AMO-1", "type": "cell-based, human"}, "[5]": {"tested_on": "EJM cells", "assay": "6-day CellTiter-Glo cell viability, EJM", "type": "cell-based, human"}, "[6]": {"assay": "PAMPA permeability", "type": "in vitro ADME", "conditions": "read-out: Stability, Mean, Perm PAMPA"}, "[7]": {"assay": "Chemical stability in buffer pH 5.5", "type": "physicochemical", "conditions": "Mcilvane (Citrate-Phosphate) buffer pH 5.5, 37° C., read-out: Stability %, Mean, t1/2 pH 5.5 (converted)", "description": "Payloads were incubated in Mcilvane (Citrate-Phosphate) buffer, pH 5.5 (Boston Bioproducts; #BB-2466) at a final concentration of 20 μM (less than 0.5% DMSO from stock solution). The payload solution and the internal standard were pipetted into 96-well plates, run on UPLC (Waters Aquity H class), and analyzed for initial chromatographic signal (t=0). The column was a Waters UPLC HSS T31.8 μm 2.1×50 mm column (#186003538). A gradient of mobile phase A from 95% to 10% was employed over 1 min, where A was 0.1% formic acid in water and mobile phase B was 0.1% formic acid in acetonitrile (flow rate 0.9 mL/min). The remainder of the payload solution was kept in a plate shaker at 37° C. (Eppendorf ThermoMixer). Sample analyses by UPLC were repeated at 24, 72, and 96 hours post-incubation at 37° C. The area ratio response of the payload and internal standard was determined for three time points: time 0, day 1, and either day 3 or day 4. Time 0 was set to 100. The area ratio responses of the later time points were compared to time 0. Percent remaining was calculated as follows: (Area Ratio day X/Area Ratio time 0)*100=% remaining. The slope of the line was calculated in Excel comparing the log of % remaining and time point."}}, "note": "pIC50: −log10 of the molar value. Where two headings read alike, the source gives them in different places."}
{"smiles": "CC[C@H](O)[C@@H](C)[C@H]1O[C@@H]1C[C@@](C)(O)/C=C/C=C(\\C)[C@H]1OC(=O)C[C@H](O)CC[C@@](C)(O)[C@@H](OC(=O)N2CCNCC2)/C=C/[C@@H]1C", "note": "[D1, (2S,3S,6S,7R,10R,E)-7,10-dihydroxy-2-((R,2E,4E)-6-hydroxy-7-((2R,3R)-3-((2R,3S)-3-hydroxypentan-2-yl)oxiran-2-yl)-6-methylhepta-2,4-dien-2-yl)-3,7-dimethyl-12-oxooxacyclododec-4-en-6-yl piperazine-1-carboxylate]", "values": [{"measurement": "pIC50", "setting": "[1]", "result": 7.67}, {"measurement": "GI50", "setting": "[2]; 96 h, read-out: CTGlo Mean GI50 MM1.R 96 h", "result": 147, "unit": "nM"}, {"measurement": "GI50", "setting": "[2]; 144 h", "result": 89.3, "unit": "nM"}, {"measurement": "AUC (nM * % relative viability)", "setting": "[2]; MM1R cells, 6 days", "result": 640.2408, "unit": "nM * % relative viability"}, {"measurement": "LD50", "setting": "[2]; MM1R cells, 6 days, CellTiter-Glo", "result": 283.0093, "unit": "nM"}, {"measurement": "RminAve", "setting": "[2]; MM1R cells, 6 days, negative = cell death vs T0", "result": "−99.9109", "unit": "%"}, {"measurement": "CTGlo Mean LD50 MM1.R 96 h", "setting": "[2]; payload alone, MM1.R, 96 h", "result": 510.8, "unit": "nM"}, {"measurement": "GI50", "setting": "[3]; Homo sapiens, MOLP-8, 144 h", "result": 150, "unit": "nM"}, {"measurement": "AUC (nM * % relative viability)", "setting": "[3]; MOLP8 cells, 6 days", "result": 690.1106, "unit": "nM * % relative viability"}, {"measurement": "LD50", "setting": "[3]; MOLP8 cells, 6 days, CellTiter-Glo", "result": 533.6503, "unit": "nM"}, {"measurement": "RminAve", "setting": "[3]; MOLP8 cells, 6 days, negative = cell death vs T0", "result": "−99.755", "unit": "%"}, {"measurement": "AUC (nM * % relative viability)", "setting": "[4]; AMO1 cells, 6 days", "result": 797.7136, "unit": "nM * % relative viability"}, {"measurement": "LD50", "setting": "[4]; AMO1 cells, 6 days, CellTiter-Glo", "result": 1689.735, "unit": "nM"}, {"measurement": "RminAve", "setting": "[4]; AMO1 cells, 6 days, negative = cell death vs T0", "result": "−99.4709", "unit": "%"}, {"measurement": "GI50", "setting": "[4]; Homo sapiens, AMO1, 144 h", "result": 567, "unit": "nM"}, {"measurement": "AUC (nM * % relative viability)", "setting": "[5]; EJM cells, 6 days", "result": 664.163, "unit": "nM * % relative viability"}, {"measurement": "LD50", "setting": "[5]; EJM cells, 6 days, CellTiter-Glo", "result": 303.5191, "unit": "nM"}, {"measurement": "RminAve", "setting": "[5]; EJM cells, 6 days, negative = cell death vs T0", "result": "−99.0579", "unit": "%"}, {"measurement": "GI50", "setting": "[5]; Homo sapiens, EJM, 144 h", "result": 140, "unit": "nM"}, {"measurement": "Papp", "setting": "[6]", "result": "< 0.1", "unit": "×10⁻⁶ cm/s"}, {"measurement": "half-life at 20 μM", "setting": "[7]", "result": 24, "unit": "h"}]}
